Patent publication US9752125B2, “Differentiation of human embryonic stem cells” (priority 2010, dated 2017)

System: human embryonic stem cells line H1
Assay: IN Cell Analyzer imaging of PDX1, NKX6.1 and CDX2 expressing cells at stage 4 day 4 (Example 1)
Type: cell-based
Method: Treatment 1: DMEM-High glucose+1% B27 for four days (stage 4-basal media-BM), or […].
Parallel populations of Stage 3 cells were also treated with the following protein kinase C activators—phorbol-12-myristate-13-acetate (PMA) at a concentration of 20 nM (Calbiochem #524400), or [(2S, 5S)-(E, E)-8-(5-(4-(Trifluoromethyl)pheny)-2,4-pentadienoylamino)benzolactam] (TPB) at a concentration of 50 nM (Calbiochem #565740), substituted for PDBu in treatment 3 above. At the end of stage 4, day 4, 91% of the cells of the population treated with PMA, and 90% of the cells of the population treated with TPB expressed NKX6.1.

[1] = PKC activator 20 nM in DMEM-High glucose+1% B27+100 ng/ml Noggin+1 μM ALK5 inhibitor II for four days

CCCC(=O)O[C@@H]1[C@@H](C)[C@@]2(O)[C@@H](C=C(CO)C[C@]3(O)C(=O)C(C)=C[C@@H]23)[C@@H]2C(C)(C)[C@]12OC(=O)CCC [PDBu, phorbol-12,13-dibutyrate]
percentage of total population expressing NKX6.1 [1]: 88%±4.2

(2S, 5S)-(E, E)-8-(5-(4-(Trifluoromethyl)phenyl)-2,4-pentadiemoylamino) benzolactam [TPB]
percentage of total population expressing NKX6.1 (TPB 50 nM substituted for PDBu in treatment 3): 90%

CCCCCCCCCCCCCC(=O)O[C@@H]1[C@@H](C)[C@@]2(O)[C@@H](C=C(CO)C[C@]3(O)C(=O)C(C)=C[C@@H]23)[C@@H]2C(C)(C)[C@]12OC(C)=O [PMA, phorbol-12-myristate-13-acetate]
percentage of total population expressing NKX6.1 [1]: 91%
